Measurements reported in PubChem BioAssay AID248 (DTP/NCI, 2004).
Values joined by “and” are separate entries in the source; they are usually repeats but may differ in a detail not shown here. Equal values may be shown once. Inconclusive results and toxic doses are left out. Cut-off read from the data, not from the text of the source: active = T/C of 150% or more; inactive = T/C below 125%.

System: L1210 leukemia ip in BDF1 mice, survival T/C
Experiment: NCI In Vivo Anticancer Drug Screen. Data for tumor model L1210 Leukemia (intraperitoneal) in B6D2F1 (BDF1) mice
Details: endpoint: mean survival time, higher = longer survival
How it was run: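 Survival endpoint. Drug-treated group vs vehicle group, expressed as T divided by C. Tumor passaged by transplantation.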

[1] = dose: 100.0 mg/kg/injection, schedule: Q01DX001 (ip), vehicle: saline
[2] = dose: 200.0 mg/kg/injection, schedule: Q01DX001 (ip), vehicle: saline
[3] = dose: 400.0 mg/kg/injection, schedule: Q01DX001 (ip), vehicle: saline
[4] = dose: 100.0 mg/kg/injection, schedule: Q01DX009 (ip), vehicle: saline with Tween-80
[5] = dose: 200.0 mg/kg/injection, schedule: Q01DX009 (ip), vehicle: saline with Tween-80
[6] = dose: 400.0 mg/kg/injection, schedule: Q01DX009 (ip), vehicle: saline with Tween-80
[7] = dose: 12.5 mg/kg/injection, schedule: Q04DX003 (ip), vehicle: saline with Tween-80
[8] = dose: 25.0 mg/kg/injection, schedule: Q04DX003 (ip), vehicle: saline with Tween-80
[9] = dose: 100.0 mg/kg/injection, schedule: Q04DX003 (ip), vehicle: saline
[10] = dose: 200.0 mg/kg/injection, schedule: Q04DX003 (ip), vehicle: saline
[11] = dose: 400.0 mg/kg/injection, schedule: Q04DX003 (ip), vehicle: saline

Measured: T/C

COC1(OC)CC2C(=O)CCCC21OC(C)=O (centres undefined)
inactive: dose: 75.0 mg/kg/injection, schedule: Q04DX002 (ip), vehicle: saline 93 % of control | dose: 150.0 mg/kg/injection, schedule: Q04DX002 (ip), vehicle: saline 103 % of control | dose: 300.0 mg/kg/injection, schedule: Q04DX002 (ip), vehicle: saline 107 % of control

O=P(O)(O)Cc1c(Cl)c(Cl)c(CP(=O)(O)O)c(Cl)c1Cl
inactive: [1] 107 % of control | [2] 104 % of control | [3] 104 % of control

CN(C)C=Nc1ccc([N+](=O)[O-])cc1
inactive: dose: 50.0 mg/kg/injection, schedule: Q01DX001 (ip), vehicle: saline 89 % of control | [1] 89 % of control | [4] 96 % of control | [2] 96 % of control | [5] 89 % of control | [3] 91 % of control | [6] 90 % of control

CCN(CC)CCNc1cc(C)nc(/N=C(\N)Nc2ccc(OCc3ccccc3)cc2)n1
inactive: dose: 6.25 mg/kg/injection, schedule: Q01DX009 (ip), vehicle: saline with Tween-80 100 % of control | dose: 6.25 mg/kg/injection, schedule: Q04DX003 (ip), vehicle: saline with Tween-80 103 % of control | dose: 12.5 mg/kg/injection, schedule: Q01DX009 (ip), vehicle: saline with Tween-80 98 % of control | [7] 101 % of control | [8] 103 % of control

O=C(c1ccc(C(=O)N(C2CCCCC2)C2CCCCC2)cc1)N(C1CCCCC1)C1CCCCC1
inactive: dose: 5.0 mg/kg/injection, schedule: Q01DX001 (ip), vehicle: saline 105 % of control | dose: 10.0 mg/kg/injection, schedule: Q01DX001 (ip), vehicle: saline 109 % of control | dose: 20.0 mg/kg/injection, schedule: Q01DX001 (ip), vehicle: saline 103 % of control | dose: 40.0 mg/kg/injection, schedule: Q01DX001 (ip), vehicle: saline 101 % of control | dose: 80.0 mg/kg/injection, schedule: Q01DX001 (ip), vehicle: saline 100 % of control

CCP1CCC(=NNC(N)=S)CC1 (centres undefined)
inactive: dose: 12.5 mg/kg/injection, schedule: Q04DX002 (ip), vehicle: saline with Tween-80 95 % of control | dose: 25.0 mg/kg/injection, schedule: Q04DX002 (ip), vehicle: saline with Tween-80 95 % of control | dose: 50.0 mg/kg/injection, schedule: Q04DX002 (ip), vehicle: saline with Tween-80 93 % of control

O=C(O)C1CCCC2C(O)CCC(O)C12 (centres undefined)
inactive: [1] 107 % of control | [9] 105 % of control | [2] 93 % of control | [10] 111 % of control | [3] 91 % of control | [11] 105 % of control

CC(=O)/C(C)=N\NC(=O)c1ccccn1
inactive: dose: 25.0 mg/kg/injection, schedule: Q01DX015 (ip), vehicle: water 119 % of control | dose: 50.0 mg/kg/injection, schedule: Q01DX001 (ip), vehicle: water 108 % of control | dose: 50.0 mg/kg/injection, schedule: Q01DX015 (ip), vehicle: water 108 % of control | dose: 100.0 mg/kg/injection, schedule: Q01DX001 (ip), vehicle: water 121 % of control | dose: 100.0 mg/kg/injection, schedule: Q01DX015 (ip), vehicle: water 119 % of control | dose: 200.0 mg/kg/injection, schedule: Q01DX001 (ip), vehicle: water 108 % of control

COc1ccc(C(=O)CC(C)=O)c(OCc2ccccc2)c1OC
inactive: [1] 101 % of control | [2] 98 % of control | [3] 104 % of control

O=[N+]([O-])c1ccc(C#[C][Hg][C]#Cc2ccc([N+](=O)[O-])cc2)cc1
inactive: [9] 95 % of control | [10] 91 % of control | [11] 98 % of control

Clc1ccccc1OB(Oc1ccccc1Cl)Oc1ccccc1Cl
inactive: [1] 101 % of control | [2] 95 % of control

CN(C)c1ccc(/C=N/NC(=O)C(O)(c2ccccc2)c2ccccc2)cc1
inactive: [4] 98 % of control | [5] 98 % of control | [6] 88 % of control

O=C(C=C(C(F)(F)F)C(F)(F)F)c1ccccc1Cl
inactive: [7] 97 % of control | [8] 86 % of control | dose: 50.0 mg/kg/injection, schedule: Q04DX003 (ip), vehicle: saline with Tween-80 100 % of control

Oc1c(Cl)cc(N=Cc2ccc(N(CCCCl)CCCCl)cc2)cc1Cl
inactive: dose: 100.0 mg/kg/injection, schedule: Q04DX003 (ip), vehicle: Klucel (hydroxypropylcellulose) (HPC) 101 % of control | dose: 200.0 mg/kg/injection, schedule: Q04DX003 (ip), vehicle: Klucel (hydroxypropylcellulose) (HPC) 101 % of control | dose: 400.0 mg/kg/injection, schedule: Q04DX003 (ip), vehicle: Klucel (hydroxypropylcellulose) (HPC) 102 % of control

O=c1cc[nH]c(=O)o1
inactive: dose: 63.0 mg/kg/injection, schedule: Q01DX009 (ip), vehicle: water 89 % of control

O=P(N1CCOCC1)(N1CCOCC1)N1CCOCC1
inactive: [9] 100 % of control and 112 % of control | [10] 98 % of control and 106 % of control | [11] 97 % of control and 109 % of control
